Assay results taken from ChEMBL document CHEMBL1201862, “PubChem BioAssay data set” (2004).
The source made the active and inactive calls.

Tests used:
[1] = target: Luciferin 4-monooxygenase (Photinus pyralis, UniProt P08659); assay: inhibition of purified Photinus pyralis luciferase – biochemical, luminescence, dose response (AID 1891)
[2] = Luminescence Cell-Based Dose Confirmation HTS to Identify Inhibitors of Platelet Dense Granule Release. [Related pubchem assays: 1663 (Primary HTS), 1678 (Summary of Project)]; type: functional
[3] = target: Photoreceptor-specific nuclear receptor (Homo sapiens, UniProt Q9Y5X4); type: functional, cell-based;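 further: CHO-S cells with Gal4-NCOR and VP16-NR2E3 two-hybrid luciferase reporter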
Chain of Photoreceptor-specific nuclear receptor (Q9Y5X4 whole entry, the tested form may be a part): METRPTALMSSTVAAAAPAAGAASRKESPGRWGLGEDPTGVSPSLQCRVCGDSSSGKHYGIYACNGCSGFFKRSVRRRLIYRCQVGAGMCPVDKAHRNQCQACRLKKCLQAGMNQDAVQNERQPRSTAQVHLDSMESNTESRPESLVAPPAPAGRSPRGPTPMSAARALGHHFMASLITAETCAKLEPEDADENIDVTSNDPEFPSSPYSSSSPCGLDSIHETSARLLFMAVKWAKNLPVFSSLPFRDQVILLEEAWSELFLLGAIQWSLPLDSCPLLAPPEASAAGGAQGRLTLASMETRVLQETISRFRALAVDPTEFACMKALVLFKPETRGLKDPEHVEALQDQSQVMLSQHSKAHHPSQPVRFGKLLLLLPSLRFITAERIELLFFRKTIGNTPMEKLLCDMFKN

[4] = target: T1, Low molecular weight phosphotyrosine protein phosphatase (Homo sapiens, UniProt P24666); type: functional; conditions: read-out: IC50_Mean
T1 sequence (P24666 whole entry): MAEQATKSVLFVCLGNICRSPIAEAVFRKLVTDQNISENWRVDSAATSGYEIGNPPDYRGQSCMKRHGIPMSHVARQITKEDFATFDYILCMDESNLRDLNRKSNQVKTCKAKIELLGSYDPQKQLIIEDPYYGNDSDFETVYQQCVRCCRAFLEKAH

[5] = target: T1, Low molecular weight phosphotyrosine protein phosphatase; type: functional; conditions: read-out: IC50_Mean; remark: listed apart in the source
[6] = target: T2, Tyrosine-protein phosphatase non-receptor type 22 (Homo sapiens, UniProt Q9Y2R2); assay: PTPN22 enzyme inhibitors – biochemical, fluorescence, LYP catalytic domain, selectivity assay for LMPTP inhibitor project, dose response (AID 652006); type: functional; conditions: read-out: IC50_Mean
T2 sequence (Q9Y2R2 whole entry): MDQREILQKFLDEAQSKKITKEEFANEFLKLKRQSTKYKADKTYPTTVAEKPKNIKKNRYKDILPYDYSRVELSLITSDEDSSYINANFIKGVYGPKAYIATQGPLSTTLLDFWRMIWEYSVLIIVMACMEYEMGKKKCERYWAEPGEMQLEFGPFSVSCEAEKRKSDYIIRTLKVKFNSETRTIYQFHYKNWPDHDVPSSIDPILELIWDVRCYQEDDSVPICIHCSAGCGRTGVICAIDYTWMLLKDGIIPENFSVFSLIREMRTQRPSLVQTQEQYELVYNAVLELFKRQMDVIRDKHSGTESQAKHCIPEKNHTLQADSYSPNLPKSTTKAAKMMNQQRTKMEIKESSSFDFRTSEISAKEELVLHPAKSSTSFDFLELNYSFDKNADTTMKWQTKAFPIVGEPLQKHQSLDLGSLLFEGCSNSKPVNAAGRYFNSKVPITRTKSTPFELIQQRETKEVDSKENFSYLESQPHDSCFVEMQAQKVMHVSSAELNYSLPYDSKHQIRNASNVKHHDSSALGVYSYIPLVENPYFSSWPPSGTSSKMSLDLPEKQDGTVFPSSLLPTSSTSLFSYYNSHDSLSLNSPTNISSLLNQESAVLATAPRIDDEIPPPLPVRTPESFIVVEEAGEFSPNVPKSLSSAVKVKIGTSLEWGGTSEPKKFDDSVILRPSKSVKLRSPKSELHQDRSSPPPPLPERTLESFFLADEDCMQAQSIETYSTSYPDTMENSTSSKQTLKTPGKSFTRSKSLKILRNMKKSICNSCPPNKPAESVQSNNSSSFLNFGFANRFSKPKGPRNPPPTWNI

[7] = target: T3, DNA repair and recombination protein RAD54-like (Homo sapiens, UniProt Q92698); assay: RAD54 Holliday junction migration blockers – biochemical, fluorescence, cherry-picked samples, dose series, confirmation (AID 651657); type: functional
T3 sequence (Q92698 whole entry): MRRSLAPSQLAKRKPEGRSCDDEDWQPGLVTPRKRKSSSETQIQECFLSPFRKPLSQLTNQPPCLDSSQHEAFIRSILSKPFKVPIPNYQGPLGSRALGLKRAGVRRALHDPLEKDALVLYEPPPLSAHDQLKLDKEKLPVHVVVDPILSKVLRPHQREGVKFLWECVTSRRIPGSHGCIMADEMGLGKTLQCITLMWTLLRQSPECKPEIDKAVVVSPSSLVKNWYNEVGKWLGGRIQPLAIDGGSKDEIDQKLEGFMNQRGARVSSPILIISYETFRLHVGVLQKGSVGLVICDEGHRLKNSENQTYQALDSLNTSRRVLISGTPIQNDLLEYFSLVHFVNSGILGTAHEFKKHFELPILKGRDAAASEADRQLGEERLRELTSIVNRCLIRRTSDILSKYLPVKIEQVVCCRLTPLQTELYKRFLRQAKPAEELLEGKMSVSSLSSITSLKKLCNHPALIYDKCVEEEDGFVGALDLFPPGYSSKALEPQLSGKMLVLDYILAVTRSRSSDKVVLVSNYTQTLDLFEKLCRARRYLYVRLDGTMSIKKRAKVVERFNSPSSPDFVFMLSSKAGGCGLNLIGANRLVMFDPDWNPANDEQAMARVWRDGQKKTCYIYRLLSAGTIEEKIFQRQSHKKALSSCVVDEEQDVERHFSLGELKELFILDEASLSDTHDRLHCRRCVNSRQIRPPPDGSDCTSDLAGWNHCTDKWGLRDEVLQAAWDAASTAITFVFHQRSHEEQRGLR

[8] = target: T4, DNA repair protein RAD52 homolog (Homo sapiens, UniProt P43351); type: functional, biochemical
T4 sequence (P43351 whole entry): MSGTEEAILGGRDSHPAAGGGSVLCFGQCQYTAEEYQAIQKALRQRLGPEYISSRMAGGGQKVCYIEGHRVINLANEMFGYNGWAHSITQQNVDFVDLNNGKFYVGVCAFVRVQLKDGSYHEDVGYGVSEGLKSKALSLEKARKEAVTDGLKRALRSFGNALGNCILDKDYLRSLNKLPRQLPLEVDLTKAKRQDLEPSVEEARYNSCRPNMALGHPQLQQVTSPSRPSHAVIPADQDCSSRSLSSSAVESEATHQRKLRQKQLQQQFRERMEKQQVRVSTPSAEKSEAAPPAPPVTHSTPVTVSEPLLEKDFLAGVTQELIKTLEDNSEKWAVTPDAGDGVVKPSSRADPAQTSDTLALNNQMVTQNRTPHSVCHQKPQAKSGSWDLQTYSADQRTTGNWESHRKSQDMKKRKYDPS

[9] = cytotoxicity toward MDA-MB-231 breast cancer cells – cell-based, CellTiter-Glo luminescence, cherry-pick, cytotoxicity control for RAD54 inhibitor project, dose response (AID 651692); type: functional
[10] = DRD fibroblast viability loss – cell-based, non-viral oncogenic, luminescence, dose response (AID 1934); type: functional; conditions: Homo sapiens
[11] = test system: BJ; assay: growth inhibition of engineered Ras-driven BJ cells – cell-based, alamar blue fluorescence, cherrypicked samples, dose response (AID 2631); type: functional; conditions: Homo sapiens;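 further: confirmatory dose-response assay in RAS-dependent BJ fibroblasts engineered with TERT, LT and ST, with cytotoxicity read by fluorescence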
[12] = test system: BJ; assay: cells; type: functional, cell-based; conditions: Homo sapiens
[13] = test system: BJ; assay: BJ-TERT fibroblast viability loss – cell-based, RAS-independent, luminescence, dose response (AID 1933); type: functional; conditions: Homo sapiens
[14] = test system: BJ; assay: BJ-TERT-LT-ST fibroblast viability loss – cell-based, RAS-independent, luminescence, dose response (AID 1935); type: functional; conditions: Homo sapiens;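 further: BJ fibroblasts immortalized with TERT plus LT and ST oncogenes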
[15] = target: T5, High affinity choline transporter 1 (Homo sapiens, UniProt Q9GZV3); assay: human choline transporter potentiators, potency – cell-based, 10-point CRC, membrane potential dye, dose response (AID 602376); type: functional
T5 sequence (Q9GZV3 whole entry): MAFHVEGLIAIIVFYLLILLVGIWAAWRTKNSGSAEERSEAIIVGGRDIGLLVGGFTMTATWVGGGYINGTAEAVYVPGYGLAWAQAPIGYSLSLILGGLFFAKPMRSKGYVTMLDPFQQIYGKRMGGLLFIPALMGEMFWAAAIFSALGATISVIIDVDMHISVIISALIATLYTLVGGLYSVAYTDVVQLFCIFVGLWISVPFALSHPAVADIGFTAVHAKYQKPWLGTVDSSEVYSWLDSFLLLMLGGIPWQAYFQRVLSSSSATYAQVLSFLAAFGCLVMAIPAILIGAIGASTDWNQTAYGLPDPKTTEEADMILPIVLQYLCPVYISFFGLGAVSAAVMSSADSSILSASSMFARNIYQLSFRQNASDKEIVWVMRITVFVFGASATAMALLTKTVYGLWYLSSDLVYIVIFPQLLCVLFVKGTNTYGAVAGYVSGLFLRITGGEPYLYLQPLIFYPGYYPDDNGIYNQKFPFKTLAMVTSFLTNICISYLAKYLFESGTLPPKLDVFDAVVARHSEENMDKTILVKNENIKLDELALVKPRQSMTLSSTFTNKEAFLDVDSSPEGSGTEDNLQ

[16] = Fluorescence-based cell-based high throughput dose response assay for inhibitors of the interaction of nucleotide-binding oligomerization domain containing 2 (NOD2) and the receptor-interacting serine-threonine kinase 2 (RIPK2).; type: functional; conditions: Homo sapiens
[17] = nonselective StAR promoter luciferase inhibitors – cell-based, luminescence, luciferase reporter, counter-screen for LRH-1 inverse agonist project, dose response (AID 651969); type: functional
[18] = Luminescence Cell-Based Dose Response HTS to Identify Activators of Luciferase Translation or Activity in H4 […] Cells. [Related pubchem assays: 1829 (Project Summary), 1814 (Primary HTS)]; type: functional
[19] = Luminescence Cell-Based Dose Retest to Confirm Inhibitors of Cancer Stem Cells. [Related pubchem assays (depositor defined):AID2717, AID2721]; type: functional, Homo sapiens; conditions: Homo sapiens
[20] = cells; type: functional
[21] = target: Nuclear receptor subfamily 5 group A member 2 (Homo sapiens, UniProt O00482); type: functional, cell-based;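 further: HEK293T cells transfected with LRH-1 and a StAR promoter luciferase reporter; potency for inhibitors that lower LRH-1 driven reporter light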
Chain of Nuclear receptor subfamily 5 group A member 2 (O00482 whole entry): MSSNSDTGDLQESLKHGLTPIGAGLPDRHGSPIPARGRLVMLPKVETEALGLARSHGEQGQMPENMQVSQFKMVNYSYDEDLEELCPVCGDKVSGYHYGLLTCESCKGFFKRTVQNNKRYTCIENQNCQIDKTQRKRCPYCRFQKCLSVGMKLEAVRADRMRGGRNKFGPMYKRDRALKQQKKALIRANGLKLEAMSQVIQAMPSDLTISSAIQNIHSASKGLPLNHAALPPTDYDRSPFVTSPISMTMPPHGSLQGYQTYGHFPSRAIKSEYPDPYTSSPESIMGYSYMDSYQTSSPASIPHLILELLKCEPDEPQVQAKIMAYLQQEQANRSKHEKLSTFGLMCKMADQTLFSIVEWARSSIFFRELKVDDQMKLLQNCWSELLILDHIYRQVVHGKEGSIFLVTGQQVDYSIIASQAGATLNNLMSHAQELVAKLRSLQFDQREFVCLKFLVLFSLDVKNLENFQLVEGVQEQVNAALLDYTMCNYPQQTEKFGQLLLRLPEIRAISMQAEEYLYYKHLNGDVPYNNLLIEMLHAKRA

[22] = Vero E6 cell cytotoxicity, dose response, cytotoxicity control for non-replicating M. tuberculosis project, secondary assay (AID 492998); type: functional, VeroE6; conditions: Vero C1008
[23] = target: Steroidogenic factor 1 (Homo sapiens, UniProt Q13285); assay: Counterscreen for inverse agonists of the liver receptor homolog-1 (LRH-1; NR5A2): Luminescence-based cell-based high throughput dose response assay to identify inverse agonists of the Steroidogenic Factor 1 Nuclear Receptor (SF1; NR5A1).; type: functional
Chain of Steroidogenic factor 1 (Q13285 whole entry): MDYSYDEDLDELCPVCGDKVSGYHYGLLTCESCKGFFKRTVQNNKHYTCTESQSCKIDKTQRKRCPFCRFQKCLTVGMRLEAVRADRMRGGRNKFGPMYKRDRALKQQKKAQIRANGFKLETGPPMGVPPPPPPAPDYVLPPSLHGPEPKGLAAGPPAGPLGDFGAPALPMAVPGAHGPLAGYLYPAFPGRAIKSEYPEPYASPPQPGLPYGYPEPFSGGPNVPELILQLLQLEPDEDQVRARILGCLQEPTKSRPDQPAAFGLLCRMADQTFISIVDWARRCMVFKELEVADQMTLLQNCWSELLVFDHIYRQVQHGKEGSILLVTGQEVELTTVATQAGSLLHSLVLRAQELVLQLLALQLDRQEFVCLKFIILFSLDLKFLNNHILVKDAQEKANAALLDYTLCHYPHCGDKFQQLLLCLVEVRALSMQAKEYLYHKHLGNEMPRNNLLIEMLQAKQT

[24] = THP-1 cell cytotoxicity, dose response, cytotoxicity control for non-replicating M. tuberculosis project (AID 489025); type: functional
[25] = Luminescence Cell-Based Dose Confirmation HTS to Identify Activators of 5'UTR Stem-Loop Driven Alpha-Synuclein mRNA Translation in H4 Neuroglioblastoma Cells. [Related pubchem assays: 1829 (Project Summary), 1814 (Primary HTS)]; type: functional
[26] = test system: H4; assay: Luminescence Cell-Based Dose Response HTS to Identify Activators of 5'UTR Stem-Loop Driven Prion Protein mRNA Translation in H4 Neuroglioblastoma Cells. [Related pubchem assays: 1829 (Project Summary), 1814 (Primary HTS)]; type: functional; conditions: Homo sapiens
[27] = target: T6, Corticotropin-releasing factor receptor 2/Corticotropin-releasing factor-binding protein (Homo sapiens, UniProt P24387+Q13324); assay: Dose Response confirmation of uHTS hits for small molecule antagonists of the CRF-binding protein and CRF-R2 receptor complex.; type: functional; conditions: read-out: IC50_Mean
T6 sequence (Q13324 whole entry): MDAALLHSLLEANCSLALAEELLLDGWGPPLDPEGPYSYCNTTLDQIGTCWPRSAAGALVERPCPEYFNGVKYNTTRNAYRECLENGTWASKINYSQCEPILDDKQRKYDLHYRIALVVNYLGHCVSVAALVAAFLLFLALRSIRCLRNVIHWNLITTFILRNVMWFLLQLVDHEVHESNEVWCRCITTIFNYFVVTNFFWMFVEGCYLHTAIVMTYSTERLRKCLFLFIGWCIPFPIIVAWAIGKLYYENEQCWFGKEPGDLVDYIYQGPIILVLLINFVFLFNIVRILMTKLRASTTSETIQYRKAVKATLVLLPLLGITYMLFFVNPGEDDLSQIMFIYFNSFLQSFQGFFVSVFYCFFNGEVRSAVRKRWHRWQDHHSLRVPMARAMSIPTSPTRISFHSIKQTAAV
T6 sequence (P24387 whole entry): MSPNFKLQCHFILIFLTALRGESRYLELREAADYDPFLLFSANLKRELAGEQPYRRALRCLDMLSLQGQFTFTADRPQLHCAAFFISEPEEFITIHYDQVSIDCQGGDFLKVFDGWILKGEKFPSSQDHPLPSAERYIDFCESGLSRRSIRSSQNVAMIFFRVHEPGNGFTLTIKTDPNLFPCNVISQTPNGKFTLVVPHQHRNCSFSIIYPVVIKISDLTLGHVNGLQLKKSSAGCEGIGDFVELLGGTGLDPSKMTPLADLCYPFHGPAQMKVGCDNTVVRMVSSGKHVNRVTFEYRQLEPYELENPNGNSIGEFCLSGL

[28] = blockers of CRF-binding protein–CRF-R2 complex – cell-based, uHTS hits, 384-well, dose response (AID 651639); type: functional, Homo sapiens; conditions: read-out: IC50_Mean
[29] = target: T6, Corticotropin-releasing factor receptor 2/Corticotropin-releasing factor-binding protein; assay: activators of CRF receptor 2 with binding protein – uHTS hits, confirmation (AID 602473); type: functional; conditions: read-out: EC50_Mean

Chain of Luciferin 4-monooxygenase (P08659 whole entry): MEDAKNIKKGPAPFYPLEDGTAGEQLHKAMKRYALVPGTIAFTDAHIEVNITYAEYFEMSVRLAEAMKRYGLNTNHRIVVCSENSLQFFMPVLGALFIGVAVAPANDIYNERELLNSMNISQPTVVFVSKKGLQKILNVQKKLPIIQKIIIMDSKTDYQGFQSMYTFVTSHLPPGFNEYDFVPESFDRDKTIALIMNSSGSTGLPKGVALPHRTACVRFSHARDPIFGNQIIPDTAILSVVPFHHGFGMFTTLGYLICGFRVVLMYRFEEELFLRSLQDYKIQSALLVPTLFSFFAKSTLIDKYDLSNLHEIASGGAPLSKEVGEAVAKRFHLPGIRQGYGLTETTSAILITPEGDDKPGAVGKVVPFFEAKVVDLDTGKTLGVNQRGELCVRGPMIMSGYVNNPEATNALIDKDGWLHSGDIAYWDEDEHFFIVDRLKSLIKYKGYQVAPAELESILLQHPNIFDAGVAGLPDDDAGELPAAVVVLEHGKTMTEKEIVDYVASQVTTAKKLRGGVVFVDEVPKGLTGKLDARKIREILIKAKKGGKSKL

## Cc1cccc(C)c1OCc1cc(C(=O)N2CCC(c3ccncc3)CC2)no1
[1]
  EC50: > 112 µM (not active)
[2]
  EC50: > 112 µM (not active)
[3]
  IC50: 6.23 µM (active)

## COc1ccccc1CNc1nc(NCc2ccc(NC(C)=O)cc2)c2sccc2n1
[4]
  IC50: 5.86 µM (active)
[5]
  IC50: 17.7 µM (active)
[6]
  IC50: 50.4 µM (inactive)

## Cc1cc2oc3ccc(NCCC4CCCN4C)cc3c(=O)c2cc1C (centres undefined)
[7]
  AC50: 14.7 µM (active)
[8]
  AC50: 8.31 µM (active)
[9]
  AC50: 23.6 µM (active)

## CCOC(=O)c1ccc(NC(=O)Nc2ccon2)cc1
[10]
  EC50: 0.429 µM (active)
[11]
  EC50: < 0.104 µM (active)
[12]
  EC50: 20.1 µM (active)
[13]
  EC50: 0.401 µM (active)
[14]
  EC50: 0.469 µM (active)
[15]
  EC50: 8.42 µM (active)
[16]
  IC50: 49.7 µM (inactive)

## O=C(Nc1ccc(S(=O)(=O)N2CCOCC2)cc1)c1ccc([N+](=O)[O-])o1
[17]
  IC50: 35.9 µM (inactive)
[18]
  EC50: > 120 µM (not active)
[19]
  AC50: 3.43 µM (active)
[20]
  IC50: 6.7 µM (active)
[21]
  IC50: 10.8 µM (inactive)
[22]
  CC50: 3.98 µM (active)
[23]
  IC50: 0.443 µM (active)
[24]
  CC50: 4.04 µM (active)
[25]
  EC50: > 120 µM (not active)
[26]
  EC50: > 120 µM (not active)

## COC(=O)c1ccc(Sc2ccc(Cl)cc2)c(N)c1
[27]
  IC50: < 0.368 µM (active)
[28]
  IC50: > 20 µM (inactive)
[29]
  EC50: > 53 µM (inactive)
